Converted amounts (≈) assume the structure as drawn.

T1 sequence (Q07820 whole entry, the tested form may be a part): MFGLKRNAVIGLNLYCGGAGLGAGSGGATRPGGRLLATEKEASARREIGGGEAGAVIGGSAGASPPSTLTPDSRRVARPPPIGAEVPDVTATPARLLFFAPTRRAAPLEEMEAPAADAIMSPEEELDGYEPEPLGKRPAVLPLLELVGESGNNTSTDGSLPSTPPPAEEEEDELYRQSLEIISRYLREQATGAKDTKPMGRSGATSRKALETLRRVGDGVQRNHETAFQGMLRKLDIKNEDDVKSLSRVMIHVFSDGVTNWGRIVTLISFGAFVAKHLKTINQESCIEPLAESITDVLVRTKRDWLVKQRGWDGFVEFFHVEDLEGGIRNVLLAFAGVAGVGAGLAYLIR

System in the first data set: not listed separately
As to the kind of experiment: Stability in mouse liver microsomes assessed as parent compound remaining after 30 mins. Type of data set: ADME, Microsome. Conditions: read-out: Stability. A general note: Liver microsomes are vesicles of endoplasmic reticulum, rich in cytochrome P450 enzymes.
Consider `Cc1cc(C(=O)N[C@H](Cc2ccccc2)C(=O)O)sc1S(=O)(=O)Nc1cc(C(F)(F)F)ccc1Cl`, for which the remaining at 0.5 h is 95%.

For `Cc1cc(C(=O)N[C@H](Cc2ccccc2)C(=O)NS(C)(=O)=O)sc1S(=O)(=O)Nc1cc(C(F)(F)F)ccc1Cl`, the remaining at 0.5 h was 91%.

Take `Cc1cc(C(=O)N[C@H](Cc2ccccc2)C(=O)NS(=O)(=O)c2ccccc2)sc1S(=O)(=O)Nc1cc(C(F)(F)F)ccc1Cl`: the remaining at 0.5 h turned out to be 81%.

Consider `Cc1cc(C(=O)N[C@H](Cc2c[nH]c3ccccc23)C(=O)O)sc1S(=O)(=O)Nc1cc(C(F)(F)F)ccc1Cl`, for which the remaining at 0.5 h was found to be 94%.

System in a further data set: not listed separately
Kind of data set: Solubility of the compound.
Conditions: not given
Type of data set: physicochemical.
Usually solubility stands for the dissolved amount per volume that the medium holds. Read a high solubility as a readily soluble substance. `Cc1cc(C(=O)N[C@H](Cc2ccccc2)C(=O)O)sc1S(=O)(=O)Nc1cc(C(F)(F)F)ccc1Cl` gave a solubility of 100 µM (≈ 54.7 µg/mL).

On to `Cc1cc(C(=O)N[C@H](Cc2c[nH]c3ccccc23)C(=O)O)sc1S(=O)(=O)Nc1cc(C(F)(F)F)ccc1Cl`, for which the concentration in solution (solubility) came to 100 µM (≈ 58.6 µg/mL).

Another data set has as its target T1, Induced myeloid leukemia cell differentiation protein Mcl-1 (Homo sapiens, UniProt Q07820). Kind of data set: Binding affinity to biotin-labelled TEV-fused GST-tagged MCl-1 (unknown origin) by surface plasmon resonance analysis.
Conditions: not given
For orientation: SPR reads the build-up and loss of mass on a sensor chip optically.
Usually Kd stands for the free concentration of one partner at which half of the binding sites on the other are occupied at equilibrium, for simple one-to-one binding. A lower Kd goes with a tighter complex. In turn, `Cc1cc(C(=O)NC[C@@H](O)c2ccccc2)sc1S(=O)(=O)Nc1cc(C(F)(F)F)ccc1Cl` returned a Kd of 165 nM.

System in a further data set: not listed separately
As to the kind of experiment: Stability in human liver microsomes assessed as parent compound remaining after 30 mins. Type of data set: ADME, Microsome. Conditions: read-out: Stability.
On to `Cc1cc(C(=O)N[C@H](Cc2ccccc2)C(=O)O)sc1S(=O)(=O)Nc1cc(C(F)(F)F)ccc1Cl`, for which the remaining at 0.5 h came to 66%.

Regarding `Cc1cc(C(=O)N[C@H](Cc2ccccc2)C(=O)NS(C)(=O)=O)sc1S(=O)(=O)Nc1cc(C(F)(F)F)ccc1Cl`, the remaining at 0.5 h turned out to be 99%.

As to `Cc1cc(C(=O)N[C@H](Cc2ccccc2)C(=O)NS(=O)(=O)c2ccccc2)sc1S(=O)(=O)Nc1cc(C(F)(F)F)ccc1Cl`, the remaining at 0.5 h came to 74%.

`Cc1cc(C(=O)N[C@H](Cc2c[nH]c3ccccc23)C(=O)O)sc1S(=O)(=O)Nc1cc(C(F)(F)F)ccc1Cl`: the remaining at 0.5 h was 98%.

The target in a further data set is T1, Induced myeloid leukemia cell differentiation protein Mcl-1. Kind of data set: Inhibition of […]-labelled BID binding to human MCl-1 (171 to 327 residues) expressed in Escherichia coli BL21 (DE3) by fluorescence polarization assay.
Conditions: not given
What is called IC50 is the concentration that inhibits the measured activity by half. The low end stands for greater potency in that assay, the high end for weaker potency in that assay. `O=S(=O)(Nc1ccc(Cl)cc1Cl)c1cc(Cl)ccc1Cl` registered an IC50 of 21000 nM.

As to `O=S(=O)(Nc1ccc2ccccc2c1)c1cc(Cl)ccc1Cl`, the IC50 was greater than 25000 nM.

For the compound `Cc1cc(C(=O)N[C@H](Cc2ccccc2)c2nnn[nH]2)sc1S(=O)(=O)Nc1cc(C(F)(F)F)ccc1Cl`, the IC50 came out at 153 nM.

In the case of `O=C(Nn1cnnc1)c1cccc(S(=O)(=O)Nc2cc(C(F)(F)F)ccc2Cl)c1`, the IC50 is 19000 nM.

The compound `Cc1cc(C(=O)N[C@H](Cc2ccc(-c3ccccc3)cc2)C(=O)O)sc1S(=O)(=O)Nc1cc(C(F)(F)F)ccc1Cl` showed an IC50 of 2800 nM.

Regarding `Cc1cc(C(=O)NCC(=O)O)sc1S(=O)(=O)Nc1cc(C(F)(F)F)ccc1Cl`, the IC50 came out at 470 nM.

In the case of `COC(=O)c1cc(C)c(S(=O)(=O)Nc2cc(C(F)(F)F)ccc2Cl)s1`, the IC50 was 1900 nM.

On to `Cc1cc(C(=O)NC(Cc2ccccc2)Cc2ccccc2)sc1S(=O)(=O)Nc1cc(C(F)(F)F)ccc1Cl`, for which the IC50 was 7100 nM.

Consider `Cc1cc(C(=O)N(CCc2ccccc2)CC(=O)O)sc1S(=O)(=O)Nc1cc(C(F)(F)F)ccc1Cl`, for which the IC50 was 690 nM.

Compound `Cc1cc(C(=O)NC2CCc3ccccc3C2)sc1S(=O)(=O)Nc1cc(C(F)(F)F)ccc1Cl` (stereo unspecified) returned an IC50 of 4200 nM.

On to `Cc1cc(C(=O)N[C@H](Cc2ccccc2)C(=O)O)sc1S(=O)(=O)Nc1cc(C(F)(F)F)ccc1Cl`, for which the IC50 was 181 nM.

In turn, `O=S(=O)(Nc1cc(C(F)(F)F)ccc1Cl)c1sc(Cl)cc1Cl` came in with an IC50 of 8600 nM.

As to `Cc1ccc([N+](=O)[O-])cc1NS(=O)(=O)c1cc(Cl)ccc1Cl`, the IC50 was 20000 nM.

In turn, `Cc1ccccc1S(=O)(=O)Nc1cc(C(F)(F)F)ccc1Cl` gave an IC50 of 11000 nM.

Compound `Cc1cc(C(=O)NCCc2ccc(Oc3ccccc3)cc2)sc1S(=O)(=O)Nc1cc(C(F)(F)F)ccc1Cl` yielded an IC50 of 7000 nM.

In turn, `Cc1cc(C(=O)NC2(C(=O)O)CC2)sc1S(=O)(=O)Nc1cc(C(F)(F)F)ccc1Cl` gave an IC50 of 1500 nM.

Take `Cc1cc(C(=O)N[C@H](Cc2ccccc2)C(N)=O)sc1S(=O)(=O)Nc1cc(C(F)(F)F)ccc1Cl`: the IC50 worked out at 153 nM.

As for `Cc1cc(C(=O)N[C@H](Cc2ccccc2)C(=O)NS(C)(=O)=O)sc1S(=O)(=O)Nc1cc(C(F)(F)F)ccc1Cl`, the IC50 amounted to 73 nM.

For `Cc1cc(C(=O)N[C@H](CCc2ccccc2)C(=O)O)sc1S(=O)(=O)Nc1cc(C(F)(F)F)ccc1Cl`, the IC50 was found to be 820 nM.

On to `Cc1cc(C(=O)N[C@H](Cc2cccnc2)C(=O)O)sc1S(=O)(=O)Nc1cc(C(F)(F)F)ccc1Cl`, for which the IC50 stood at 380 nM.

For the compound `Cc1cc(C(=O)NCCc2ccccc2)sc1S(=O)(=O)Nc1cc(C(F)(F)F)ccc1Cl`, the IC50 was 810 nM.

`Cc1cc(C(=O)N[C@@H](C(=O)O)C(C)C)sc1S(=O)(=O)Nc1cc(C(F)(F)F)ccc1Cl` showed an IC50 of 660 nM.

`Cc1cc(C(=O)N[C@H](Cc2ccccc2)C(=O)NS(=O)(=O)c2ccccc2)sc1S(=O)(=O)Nc1cc(C(F)(F)F)ccc1Cl` had an IC50 of 53 nM.

With `Cc1cc(C(=O)NCc2nnn[nH]2)sc1S(=O)(=O)Nc1cc(C(F)(F)F)ccc1Cl`, the IC50 turned out to be 420 nM.

Compound `Cc1cc(C(=O)N[C@H](Cc2c[nH]c3ccccc23)C(=O)O)sc1S(=O)(=O)Nc1cc(C(F)(F)F)ccc1Cl` came in with an IC50 of 210 nM.

Regarding `Cc1cc(C(=O)N[C@H](Cc2c[nH]cn2)C(=O)O)sc1S(=O)(=O)Nc1cc(C(F)(F)F)ccc1Cl`, the IC50 was 920 nM.

`Cc1ccc(F)cc1S(=O)(=O)Nc1cc(C(F)(F)F)ccc1Cl` yielded an IC50 of 5500 nM.

Regarding `Cc1cc(C(=O)N[C@H](Cc2ccccc2)C(=O)NCCO)sc1S(=O)(=O)Nc1cc(C(F)(F)F)ccc1Cl`, the half-maximal inhibitory concentration (IC50) came to 112 nM.

`O=S(=O)(Nc1ccn[nH]1)c1cc(Cl)ccc1Cl`: the IC50 was greater than 25000 nM.

Consider `CN(C)c1ccc(S(=O)(=O)N(C)C)cc1NS(=O)(=O)c1cc(Cl)ccc1Cl`, for which the IC50 worked out at 18000 nM.

As for `Cc1cc(C(=O)NC[C@H](O)c2ccccc2)sc1S(=O)(=O)Nc1cc(C(F)(F)F)ccc1Cl`, the IC50 was 470 nM.

As to `Cc1cc2c(cc1S(=O)(=O)Nc1cc(C(F)(F)F)ccc1Cl)OCC(=O)N2`, the IC50 amounted to 1800 nM.

Regarding `Cc1cc(F)ccc1S(=O)(=O)Nc1cc(C(F)(F)F)ccc1Cl`, the IC50 came out at 10000 nM.

For the compound `O=S(=O)(Nc1ccccc1Cl)c1cc(Cl)ccc1Cl`, the IC50 was greater than 25000 nM.

On to `CC(C)c1cccc(NS(=O)(=O)c2cc(Cl)ccc2Cl)c1`, for which the IC50 was greater than 25000 nM.

The compound `Cc1cc(C(=O)NS(C)(=O)=O)sc1S(=O)(=O)Nc1cc(C(F)(F)F)ccc1Cl` came in with an IC50 of 1070 nM.

As to `Cc1cc(C(=O)N2CCN(C(=O)OC(C)(C)C)C[C@H]2C(=O)O)sc1S(=O)(=O)Nc1cc(C(F)(F)F)ccc1Cl`, the IC50 amounted to 630 nM.

`Cn1ccnc1S(=O)(=O)Nc1cc(C(F)(F)F)ccc1Cl`: the IC50 amounted to 17000 nM.

With `O=S(=O)(Nc1cc(Cl)c(Cl)cc1Cl)c1cc(Cl)ccc1Cl`, the IC50 was found to be 9000 nM.

As to `O=S(=O)(Nc1cc(C(F)(F)F)ccc1Cl)c1c(Cl)cccc1Cl`, the IC50 stood at 7300 nM.

`Cc1cc(C(=O)NC(Cc2ccccc2)C(=O)O)sc1S(=O)(=O)Nc1cc(C(F)(F)F)ccc1Cl` (stereo unspecified) showed an IC50 of 300 nM.

`Cc1cc(C(=O)N[C@H](COCc2ccccc2)C(=O)O)sc1S(=O)(=O)Nc1cc(C(F)(F)F)ccc1Cl` came in with an IC50 of 310 nM.

In the case of `Cc1cc(C(=O)N2CCCC[C@H]2C(=O)O)sc1S(=O)(=O)Nc1cc(C(F)(F)F)ccc1Cl`, the IC50 worked out at 1000 nM.

Compound `O=S(=O)(Nc1cccc(C(F)(F)F)c1)c1cc(Cl)ccc1Cl` displayed an IC50 greater than 25000 nM.

In turn, `Cc1ccc(S(=O)(=O)Nc2cc(C(F)(F)F)ccc2Cl)c(C)c1` had a 50% inhibitory concentration (IC50) of 12000 nM.

The compound `COC(=O)[C@@H](Cc1ccccc1)NC(=O)c1cc(C)c(S(=O)(=O)Nc2cc(C(F)(F)F)ccc2Cl)s1` returned an IC50 of 145 nM.

`Cc1cc(C(=O)NC(Cc2ccccc2)c2ccccc2)sc1S(=O)(=O)Nc1cc(C(F)(F)F)ccc1Cl` (stereo unspecified) registered an IC50 of 7100 nM.

The compound `Cc1nn(C)c(Cl)c1S(=O)(=O)Nc1cc(C(F)(F)F)ccc1Cl` registered an IC50 of 23000 nM.

In turn, `O=S(=O)(Nc1cc(C(F)(F)F)ccc1Cl)c1ccccc1Cl` displayed an IC50 of 13000 nM.

The compound `Cc1cc(C(=O)N[C@@H](Cc2ccccc2)C(=O)O)sc1S(=O)(=O)Nc1cc(C(F)(F)F)ccc1Cl` registered an IC50 of 750 nM.

With `Cc1cc(C(=O)N[C@H](C)C(=O)O)sc1S(=O)(=O)Nc1cc(C(F)(F)F)ccc1Cl`, the concentration for half-maximal inhibition (IC50) turned out to be 1500 nM.

The compound `O=S(=O)(Nc1cc(Cl)ccc1Cl)c1cc(Cl)ccc1Cl` yielded an IC50 of 11000 nM.

The compound `O=S(=O)(Nc1cc(C(F)(F)F)ccc1Cl)c1cc(Cl)ccc1Cl` displayed an IC50 of 149 to 3100 nM.

`Cc1cc(C(=O)NCCC(=O)O)sc1S(=O)(=O)Nc1cc(C(F)(F)F)ccc1Cl` had an IC50 of 3500 nM.

Regarding `Cc1cc(C(=O)NC[C@@H](O)c2ccccc2)sc1S(=O)(=O)Nc1cc(C(F)(F)F)ccc1Cl`, the IC50 worked out at 149 nM.

The values above are taken from ChEMBL document CHEMBL4387763, “Discovery of novel biaryl sulfonamide based Mcl-1 inhibitors” (Bioorg Med Chem Lett, 2019).
